In ChEMBL document CHEMBL1201862, “PubChem BioAssay data set” (2004):
Several values for one entry are separate records, joined by “and”; a condition that tells them apart may be missing. Equal entries are not always repeated.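 Step 1: Grow cells in 96-well plates. Step 2: Expose to compound for 48 hours at 5 concentrations. Step 3: Interpolate endpoints linearly; if unreached, use highest concentration. GI50 is the concentration that inhibits growth by half.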 Activity calls are given as the source filed them. Rule as the data show it: active = GI50 up to about 1.1 µM and inactive = higher.

Experiments:
Experiment in all cases: DTP human tumour cell line panel, 48 h
[1] = tested on: COLO 205
[2] = tested on: Malme-3M
[3] = tested on: MDA-MB-435
[4] = tested on: SK-MEL-2
[5] = tested on: M14
[6] = tested on: K562
[7] = tested on: SW-620
[8] = tested on: LOX IMVI
[9] = tested on: U-251
[10] = tested on: PC-3
[11] = tested on: MDA-N
[12] = tested on: OVCAR-8
[13] = tested on: KM12
[14] = tested on: EKVX
[15] = tested on: MDA-MB-231

Row | SMILES | GI50 [1] | GI50 [2] | GI50 [3] | GI50 [4] | GI50 [5] | GI50 [6] | GI50 [7] | GI50 [8] | GI50 [9] | GI50 [10] | GI50 [11] | GI50 [12] | GI50 [13] | GI50 [14] | GI50 [15]
1 | COc1cc2c(c(OC)c1OC)-c1ccc(SC)cc1C(=O)CC2 | < 0.01 µM (active) | < 0.01 µM (active) | < 0.01 µM (active) | > 100 µM (inactive) | < 0.01 µM (active) | < 0.01 µM (active) | < 0.0228 µM (active) | < 0.01 µM (active) | < 0.01 µM (active) | < 0.01 µM (active) | 0.0243 µM (active) | < 0.01 µM (active) | < 0.01 µM (active) | < 0.0382 µM (active) | –
2 | CN(Cc1cccc2ccccc12)Cc1cccc2ccccc12 | 17.8 µM (inactive) | 20 µM (inactive) | 35.7 µM (inactive) | 14.1 µM (inactive) | 27.5 µM (inactive) | 35.1 µM (inactive) | 20.6 µM (inactive) | 34.3 µM (inactive) | 22.6 µM (inactive) | 24 µM (inactive) | – | 70.5 µM (inactive) | 41.5 µM (inactive) | 37.5 µM (inactive) | 21.8 µM (inactive)
3 | c1csc(C(NC2=NCCO2)C2CC2)c1 (configuration not stated) | > 100 µM (inactive) | – | – | > 100 µM (inactive) | – | – | > 100 µM (inactive) | > 100 µM (inactive) | > 100 µM (inactive) | > 100 µM (inactive) | > 100 µM (inactive) | > 100 µM (inactive) | – | > 100 µM (inactive) | > 100 µM (inactive)
4 | CC(=O)c1c(-c2cccc3ccccc23)c(C#N)c(=S)n(C2OC(CO)C(O)C(O)C2O)c1C (configuration not stated) | > 100 µM (inactive) | – | – | > 100 µM (inactive) | – | 43.9 µM (inactive) and 71.6 µM (inactive) | > 100 µM (inactive) | > 100 µM (inactive) | – | > 100 µM (inactive) | 50.1 µM (inactive) | > 100 µM (inactive) | 79.1 µM (inactive) | 11.1 µM (inactive) | –
5 | c1cc2nnnn2nc1N1CCCC1 | > 100 µM (inactive) | – | > 100 µM (inactive) | > 100 µM (inactive) | > 100 µM (inactive) | > 100 µM (inactive) | > 100 µM (inactive) | > 100 µM (inactive) | > 100 µM (inactive) | > 100 µM (inactive) | > 100 µM (inactive) | > 100 µM (inactive) | > 100 µM (inactive) | – | > 100 µM (inactive)
6 | CCOc1cc(NC(C)=O)ccc1C(=O)NN1C(=O)/C(=C/c2cc(OC)c(OC)c(OC)c2)N=C1c1ccccc1 | > 100 µM (inactive) | 53.5 µM (inactive) | > 100 µM (inactive) | – | 64.9 µM (inactive) | > 100 µM (inactive) | > 100 µM (inactive) | > 100 µM (inactive) | – | – | > 100 µM (inactive) | 63.5 µM (inactive) | 37.2 µM (inactive) | > 100 µM (inactive) | –
7 | CCN(CC)C(=S)SS(=O)(=O)c1cccc(N)c1 | > 100 µM (inactive) | > 100 µM (inactive) | > 100 µM (inactive) | > 100 µM (inactive) | > 100 µM (inactive) | > 100 µM (inactive) | > 100 µM (inactive) | > 100 µM (inactive) | > 100 µM (inactive) | – | > 100 µM (inactive) | > 100 µM (inactive) | > 100 µM (inactive) | > 100 µM (inactive) | > 100 µM (inactive)
8 | Cc1ccc(C2=Nn3c(nc4sc(-c5ccccc5)cc4c3=O)SC2)cc1 | > 100 µM (inactive) | > 100 µM (inactive) | > 100 µM (inactive) | – | – | > 100 µM (inactive) | > 100 µM (inactive) | > 100 µM (inactive) | > 100 µM (inactive) | > 100 µM (inactive) | > 100 µM (inactive) | > 100 µM (inactive) | > 100 µM (inactive) | > 100 µM (inactive) | > 100 µM (inactive)
9 | Cc1ccc(NC=O)c(-c2c(N)[nH]c(=S)[nH]c2=O)c1 | > 100 µM (inactive) | > 100 µM (inactive) | 94 µM (inactive) | > 100 µM (inactive) | > 100 µM (inactive) | > 100 µM (inactive) | > 100 µM (inactive) | > 100 µM (inactive) | – | – | > 100 µM (inactive) | > 100 µM (inactive) | > 100 µM (inactive) | > 100 µM (inactive) | > 100 µM (inactive)
10 | N[C@@H]1C[C@H](N)c2c(Cl)sc(Cl)c21 | > 100 µM (inactive) | – | > 100 µM (inactive) | > 100 µM (inactive) | > 100 µM (inactive) | > 100 µM (inactive) | > 100 µM (inactive) | > 100 µM (inactive) | > 100 µM (inactive) | > 100 µM (inactive) | > 100 µM (inactive) | > 100 µM (inactive) | > 100 µM (inactive) | > 100 µM (inactive) | > 100 µM (inactive)
11 | COc1cccc(/C=N/NC(=O)CN(C)C)c1O | > 100 µM (inactive) | > 100 µM (inactive) | > 100 µM (inactive) | – | > 100 µM (inactive) | > 100 µM (inactive) | > 100 µM (inactive) | > 100 µM (inactive) | > 100 µM (inactive) | > 100 µM (inactive) | > 100 µM (inactive) | > 100 µM (inactive) | > 100 µM (inactive) | > 100 µM (inactive) | –
12 | CNC(=O)OC(COC)CN1CCN(c2ccccc2C)CC1 (configuration not stated) | > 10 µM (inactive) | > 10 µM (inactive) | > 10 µM (inactive) | > 10 µM (inactive) | > 10 µM (inactive) | > 10 µM (inactive) | > 10 µM (inactive) | > 10 µM (inactive) | > 10 µM (inactive) | > 10 µM (inactive) | – | > 10 µM (inactive) | > 10 µM (inactive) | > 10 µM (inactive) | > 10 µM (inactive)
13 | COc1ccc(C2SCC(=O)N2NC(=O)c2ccc(NC(C)=O)cc2)c(OC)c1 (configuration not stated) | > 100 µM (inactive) | – | > 100 µM (inactive) | > 100 µM (inactive) | 69.8 µM (inactive) | > 100 µM (inactive) | > 100 µM (inactive) | – | 33.6 µM (inactive) | – | > 100 µM (inactive) | > 100 µM (inactive) | > 100 µM (inactive) | > 100 µM (inactive) | > 100 µM (inactive)
14 | ClCCCN(CCCCl)c1ccc(/C=N/c2cccc(Cl)c2)cc1 | 47.6 µM (inactive) | 6.22 µM (inactive) | 28.8 µM (inactive) | 26.7 µM (inactive) | 29.3 µM (inactive) | 11.8 µM (inactive) | 12.9 µM (inactive) | 7.57 µM (inactive) | 26.9 µM (inactive) | 10.7 µM (inactive) | – | 6.95 µM (inactive) | 20.5 µM (inactive) | 0.637 µM (active) | 12.2 µM (inactive)
15 | CC(C)C[P+](c1ccccc1)(c1ccccc1)c1ccccc1 | 3.08 µM (inactive) | 5.7 µM (inactive) | 2.87 µM (inactive) | 4.36 µM (inactive) | 8.41 µM (inactive) | 2.28 µM (inactive) | 5.87 µM (inactive) | 11.3 µM (inactive) | 3.12 µM (inactive) | – | – | – | 1.79 µM (inactive) | 3.1 µM (inactive) | 31.8 µM (inactive)
16 | CC1=CC(=O)/C(=C/NC(=S)c2ccncc2)C(=O)O1 | > 100 µM (inactive) | 83.2 µM (inactive) | > 100 µM (inactive) | > 100 µM (inactive) | > 100 µM (inactive) | – | > 100 µM (inactive) | > 100 µM (inactive) | > 100 µM (inactive) | > 100 µM (inactive) | > 100 µM (inactive) | > 100 µM (inactive) | > 100 µM (inactive) | 46.7 µM (inactive) | > 100 µM (inactive)
17 | CCOC(=O)Cc1csc2[n+]1C(=O)/C(=C/c1cccc(OC)c1O)S2 | 78.5 µM (inactive) | – | 11.9 µM (inactive) | 45 µM (inactive) | 77.6 µM (inactive) | – | > 100 µM (inactive) | 51.8 µM (inactive) | 0.192 µM (active) | 40.8 µM (inactive) | 40.1 µM (inactive) | 52.6 µM (inactive) | 38.1 µM (inactive) | 74.1 µM (inactive) | 51.5 µM (inactive)
18 | CCOC(=O)C1=CC(C)(C(=O)OCC)Nc2c(nc(OC)[nH]c2=O)N1 (configuration not stated) | > 10 µM (inactive) | > 10 µM (inactive) | – | > 10 µM (inactive) | > 10 µM (inactive) | > 10 µM (inactive) | > 10 µM (inactive) | > 10 µM (inactive) | > 10 µM (inactive) | > 10 µM (inactive) | > 10 µM (inactive) | > 10 µM (inactive) | > 10 µM (inactive) | > 10 µM (inactive) | > 10 µM (inactive)
19 | Cc1cc(S(=O)(=O)[N-]/C(=N/S(=O)(=O)c2ccc(Cl)cc2)[n+]2ccc(N(C)C)cc2)c(S)cc1Cl | – | – | > 100 µM (inactive) | > 100 µM (inactive) | 35.3 µM (inactive) | 1.92 µM (inactive) | 58.3 µM (inactive) | > 100 µM (inactive) | 47 µM (inactive) | 54 µM (inactive) | > 100 µM (inactive) | > 100 µM (inactive) | > 100 µM (inactive) | > 100 µM (inactive) | > 100 µM (inactive)
20 | C#C/C=C\CCCC/C=C\C#CC#CCCCC#CC#C[C@H](COS(=O)(=O)O)OS(=O)(=O)O | > 100 µM (inactive) | – | > 100 µM (inactive) | > 100 µM (inactive) | > 100 µM (inactive) | – | > 100 µM (inactive) | > 100 µM (inactive) | > 100 µM (inactive) | > 100 µM (inactive) | > 100 µM (inactive) | > 100 µM (inactive) | > 100 µM (inactive) | > 100 µM (inactive) | > 100 µM (inactive)
21 | CS(=O)(=O)N1CC(CCl)c2ccc(O)cc21 (configuration not stated) | 1.9 µM (inactive) | 2.19 µM (inactive) | 1.89 µM (inactive) | 2.94 µM (inactive) | – | 2.47 µM (inactive) | 2.6 µM (inactive) | 3.57 µM (inactive) | 2.74 µM (inactive) | 2.17 µM (inactive) | 1.52 µM (inactive) | 2.08 µM (inactive) | 2.46 µM (inactive) | 5.31 µM (inactive) | 2.2 µM (inactive)
